# In patent publication US20210308138A1, “TISSUE TRANSGLUTAMINASE MODULATORS FOR MEDICINAL USE” (Aarhus Universitet, priority 2018, published 2021):
# Columns and labels:
# [1] = test system: small mesenteric arteries; test: Acetylcholine-induced relaxation of small mesenteric arteries from healthy and diabetic BKS mice (ex vivo); design: species or system male BKS(D)-Leprdb/JOrlRj mice
# Procedure: In these experiments, healthy control mice of different ages and diabetic adult mice were used and the relaxation measurements were performed as described in Example 1.
# Healthy male BKS(D)-Leprdb/JOrlRj heterozygous mice between 14-16 and 24-25 weeks of age, and diabetic homozygous mice between 16-17 weeks of age were tested respectively. The results of the isometric tension studies are shown in FIGS. 2, A), B) and C) respectively.
# [2] = test system: diabetic male BKS(D)-Leprdb/JOrlRj homozygous mice; test: Long-term in vivo treatment of diabetic mice, endothelial function as acetylcholine-induced relaxation of small mesenteric arteries; conditions: LDN-27219 8 mg/kg/12 h IP for 3 weeks vs candesartan cilexetil 3 mg/kg/24 h in drinking water
# Procedure: For long-term ‘in vivo’ experiments, stocks of LDN-27219 dissolved in PEG-400 were diluted in saline solution containing SBE-b-CD to improve solubility (9 mg/mL NaCl; 15% (w/v) SBE-b-CD) […], resulting in a final concentration of 2.00 mg/mL of LDN-27219 in 10% PEG-400/90%(15% (w/v) SBE-b-CD in saline solution). For the treatment on the drinking water 1 mg/ml Candesartan cilexetil was dissolved in a vehicle of polyethylene glycol 400 (10% v/v), ethanol (5% v/v), cremophor EL (2% v/v), and tap water (83% v/v) and the pH was adjusted to 9.0 with 0.5 mol/L Na2CO3 prior to dilution to the final concentration in tap water, as previously described (Seltzer A., et al., Brain Res., 2004, 1028(1), 9-18). Final concentrations needed to achieve the desired doses of candesartan cilexetil per day were determined by measuring water consumption each 3-4 days.
# For long-term ‘in vivo’ studies, diabetic homozygous mice were randomly allocated into three groups: 1) treatment with Intraperitoneal (IP) injections of LDN-27219 (8 mg/kg/12 h) and vehicle drinking water [LDN-27219 treatment group], or 2) treatment with IP injections of vehicle (each 12 h) and candesartan cilexetil (3 mg/kg/24 h) in the drinking water [candesartan treatment group], or 3) treatment with IP injections of vehicle (each 12 h) and vehicle drinking water [vehicle treatment group]. […]
# purified human TG2 = biological target: T1, purified human TG2 (Homo sapiens, UniProt P21980); test: Conformational shift assay by native polyacrylamide gel electrophoresis (native-PAGE); type: biochemical; conditions: TG2 2.5 uM; 1 mM LDN-27219, 1 mM GTPNa2, or 0.2 mM Z-DON with CaCl2
# T1 construct: purchased Zedira (Darmstadt, Germany); host or cells: insect cells
# T1 sequence (P21980 1-687): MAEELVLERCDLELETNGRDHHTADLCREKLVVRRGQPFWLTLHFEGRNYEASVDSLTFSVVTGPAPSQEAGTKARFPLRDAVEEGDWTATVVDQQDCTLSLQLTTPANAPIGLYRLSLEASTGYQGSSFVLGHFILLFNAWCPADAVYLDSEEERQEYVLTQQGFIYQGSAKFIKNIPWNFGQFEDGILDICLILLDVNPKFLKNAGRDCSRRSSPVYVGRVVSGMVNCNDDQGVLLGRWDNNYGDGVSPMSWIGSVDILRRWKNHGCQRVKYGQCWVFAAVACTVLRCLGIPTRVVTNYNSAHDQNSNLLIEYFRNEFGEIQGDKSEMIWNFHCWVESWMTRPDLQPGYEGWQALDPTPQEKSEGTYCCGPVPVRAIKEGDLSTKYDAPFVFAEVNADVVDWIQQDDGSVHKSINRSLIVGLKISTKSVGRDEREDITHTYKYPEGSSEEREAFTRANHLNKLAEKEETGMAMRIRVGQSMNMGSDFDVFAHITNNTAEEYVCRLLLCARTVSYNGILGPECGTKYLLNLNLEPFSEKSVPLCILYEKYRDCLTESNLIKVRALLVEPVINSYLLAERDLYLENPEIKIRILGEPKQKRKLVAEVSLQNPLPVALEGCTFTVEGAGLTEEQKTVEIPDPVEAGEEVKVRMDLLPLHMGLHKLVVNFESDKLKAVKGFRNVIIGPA
# Procedure: For the conformational shift assay using native polyacrylamide gel electrophoresis (native-PAGE) purified and functional human TG2 protein produced in insect cells was obtained from Zedira (Darmstadt, Germany).
# Native gel electrophoresis experiments were performed using a method similar to those previously described (Pinkas D M, et al., PLoS Biol, 2007, 5(12), 2788-2796.) (Iversen R, et al., Proc Natl. Acad. Sci., 2014, 111(43), 17146-17151). Briefly, TG2 (2.5 uM) was incubated for 30 min at room temperature in preincubation buffer (75 mM imidazole, 0.5 mM EDTA, 5 mM DTT [pH 7.2], 10% DMSO) with or without 1 mM GTPNa2 or 1 mM LDN-27219 before adding Native Sample Buffer for Protein Gels (Bio-Rad) or in preincubation buffer with 0.2 mM Z-DON 30 min prior addition of 5 mM of CaCl2 for 20 min. Native buffer was added (dilution 1:2), and 1.5 ug of protein was loaded onto a 4-20% Criterion™ TGX Stain-Free™ gel (Bio-Rad) using Tris-glycine as the running buffer. For 75 min, 125 V was applied at 4° C. The bands were visualized using stain-free technology by exposing the gels to UV light and capturing the image using a PXi 4 Touch image analysis system (Syngene). Band intensity analysis was carried out using GeneTools 4 software (Syngene).
smiles,measurement,setting,value
NNC(=O)CSc1nc2scc(-c3ccccc3)c2c(=O)n1-c1ccccc1 [LDN-27219],"endothelium-dependent relaxation induced by acetylcholine, compared to vehicle","[1]; LDN-27219 3·10^−6 mol/L, healthy and diabetic mice",more potent endothelium-dependent relaxation
same,dependence of the effect on age and diabetes,"[1]; healthy mice 14-16 and 24-25 weeks, diabetic mice 16-17 weeks","more pronounced in older mice, and particularly pronounced in diabetic mice"
same,prevention of diabetes-related endothelial dysfunction,[2],able to prevent diabetes-related endothelial dysfunction better than the long-term treatment with angiotensin II receptor antagonist candesartan cilexetil
same,relative abundance of closed / open conformation of TG2,purified human TG2,increase the relative abundance of the closed conformation
